# Experimental data reported in patent US11866720B2, “Transgenic or non-transgenic plants with mutated protoporphyrinogen oxidase having increased tolerance to herbicides” (priority 2013, dated 2024).
# Where a chain is given by its changes, count along the chain named. Several values for one entry are separate records, joined by “and”; a condition that tells them apart may be missing. Equal entries are not always repeated.
# What was measured:
# Test in all cases: biochemical
# Settings in all cases: IC50 (M)
# [1] = molecular target: T1, recombinant wildtype and mutated PPO (Amaranthus PPO2: PPX2L_WC SEQ ID NO 2, PPX2L_AC SEQ ID NO 4, dG210 SEQ ID NO 6 & 8) (Amaranthus tuberculatus, UniProt Q0NZW9, D133A/F420I/R128Y)
# T1 sequence (Q0NZW9 1-534 R128Y/D133A/F420I): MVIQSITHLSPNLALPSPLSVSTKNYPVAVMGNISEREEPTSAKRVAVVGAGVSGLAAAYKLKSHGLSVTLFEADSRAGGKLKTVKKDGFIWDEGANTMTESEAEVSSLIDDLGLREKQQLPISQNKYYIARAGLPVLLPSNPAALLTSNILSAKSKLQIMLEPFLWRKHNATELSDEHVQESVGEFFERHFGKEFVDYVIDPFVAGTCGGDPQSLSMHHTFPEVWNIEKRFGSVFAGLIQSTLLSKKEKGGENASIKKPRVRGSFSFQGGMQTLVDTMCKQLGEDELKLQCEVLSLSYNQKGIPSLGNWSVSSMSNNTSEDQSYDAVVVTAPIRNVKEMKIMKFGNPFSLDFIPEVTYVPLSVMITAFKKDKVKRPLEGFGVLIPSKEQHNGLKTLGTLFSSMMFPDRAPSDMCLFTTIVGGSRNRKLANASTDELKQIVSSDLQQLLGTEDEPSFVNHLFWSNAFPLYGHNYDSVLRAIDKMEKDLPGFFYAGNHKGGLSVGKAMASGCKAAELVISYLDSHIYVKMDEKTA
# [2] = molecular target: T2, recombinant wildtype and mutated PPO (Amaranthus PPO2: PPX2L_WC SEQ ID NO 2, PPX2L_AC SEQ ID NO 4, dG210 SEQ ID NO 6 & 8) (Amaranthus tuberculatus, UniProt Q0NZW9, D133A/F420L/R128I)
# T2 sequence (Q0NZW9 1-534 R128I/D133A/F420L): T1 sequence (Q0NZW9 1-534 R128Y/D133A/F420I) with Y128I, I420L
# [3] = molecular target: recombinant wildtype and mutated PPO (Amaranthus PPO2: PPX2L_WC SEQ ID NO 2, PPX2L_AC SEQ ID NO 4, dG210 SEQ ID NO 6 & 8) (Amaranthus tuberculatus, UniProt Q0NZW9, D133A/F420M/R128C)
# [4] = molecular target: recombinant wildtype and mutated PPO (Amaranthus PPO2: PPX2L_WC SEQ ID NO 2, PPX2L_AC SEQ ID NO 4, dG210 SEQ ID NO 6 & 8) (Amaranthus tuberculatus, UniProt Q0NZW9, D133A/F420M/R128H)
# [5] = molecular target: recombinant wildtype and mutated PPO (Amaranthus PPO2: PPX2L_WC SEQ ID NO 2, PPX2L_AC SEQ ID NO 4, dG210 SEQ ID NO 6 & 8) (Amaranthus tuberculatus, UniProt Q0NZW9, D133A/F420M/R128M)
# [6] = molecular target: recombinant wildtype and mutated PPO (Amaranthus PPO2: PPX2L_WC SEQ ID NO 2, PPX2L_AC SEQ ID NO 4, dG210 SEQ ID NO 6 & 8) (Amaranthus tuberculatus, UniProt Q0NZW9, D133A/F420M/R128V)
# [7] = molecular target: recombinant wildtype and mutated PPO (Amaranthus PPO2: PPX2L_WC SEQ ID NO 2, PPX2L_AC SEQ ID NO 4, dG210 SEQ ID NO 6 & 8) (Amaranthus tuberculatus, UniProt Q0NZW9, D133A/F420V/R128C)
# [8] = molecular target: T3, recombinant wildtype and mutated PPO (Amaranthus PPO2: PPX2L_WC SEQ ID NO 2, PPX2L_AC SEQ ID NO 4, dG210 SEQ ID NO 6 & 8) (Amaranthus tuberculatus, UniProt Q0NZW9, D133A/F420V/R128I)
# T3 sequence (Q0NZW9 1-534 R128I/D133A/F420V): T1 sequence (Q0NZW9 1-534 R128Y/D133A/F420I) with Y128I, I420V
# recombinant wildtype and mutated PPO (Amaranthus PPO2: PPX2L_WC SEQ ID NO 2, PPX2L_AC SEQ ID NO 4, dG210 SEQ ID NO 6 & 8) (Amaranthus tuberculatus, UniProt Q0NZW9, D133A/F420M/R128M), sequence (Q0NZW9 1-534 R128M/D133A/F420M): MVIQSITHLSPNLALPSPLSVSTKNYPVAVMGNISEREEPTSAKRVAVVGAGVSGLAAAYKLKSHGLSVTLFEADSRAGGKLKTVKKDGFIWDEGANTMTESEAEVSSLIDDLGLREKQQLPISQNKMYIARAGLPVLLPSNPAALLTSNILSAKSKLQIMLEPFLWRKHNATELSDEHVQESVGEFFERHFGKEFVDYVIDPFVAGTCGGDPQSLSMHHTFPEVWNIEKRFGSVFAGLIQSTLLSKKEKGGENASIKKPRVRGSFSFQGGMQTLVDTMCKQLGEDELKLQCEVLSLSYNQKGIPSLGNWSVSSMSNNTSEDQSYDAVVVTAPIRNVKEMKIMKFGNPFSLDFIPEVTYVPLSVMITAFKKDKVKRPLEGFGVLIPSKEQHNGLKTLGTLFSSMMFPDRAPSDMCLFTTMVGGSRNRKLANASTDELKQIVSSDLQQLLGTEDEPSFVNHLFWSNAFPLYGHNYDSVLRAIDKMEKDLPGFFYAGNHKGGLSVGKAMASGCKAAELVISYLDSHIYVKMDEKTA
# recombinant wildtype and mutated PPO (Amaranthus PPO2: PPX2L_WC SEQ ID NO 2, PPX2L_AC SEQ ID NO 4, dG210 SEQ ID NO 6 & 8) (Amaranthus tuberculatus, UniProt Q0NZW9, D133A/F420M/R128C), sequence (Q0NZW9 1-534 R128C/D133A/F420M): as the sequence (Q0NZW9 1-534 R128M/D133A/F420M) above, with M128C counted along it
# recombinant wildtype and mutated PPO (Amaranthus PPO2: PPX2L_WC SEQ ID NO 2, PPX2L_AC SEQ ID NO 4, dG210 SEQ ID NO 6 & 8) (Amaranthus tuberculatus, UniProt Q0NZW9, D133A/F420V/R128C), sequence (Q0NZW9 1-534 R128C/D133A/F420V): as the sequence (Q0NZW9 1-534 R128M/D133A/F420M) above, with M128C, M420V counted along it
# recombinant wildtype and mutated PPO (Amaranthus PPO2: PPX2L_WC SEQ ID NO 2, PPX2L_AC SEQ ID NO 4, dG210 SEQ ID NO 6 & 8) (Amaranthus tuberculatus, UniProt Q0NZW9, D133A/F420M/R128H), sequence (Q0NZW9 1-534 R128H/D133A/F420M): as the sequence (Q0NZW9 1-534 R128M/D133A/F420M) above, with M128H counted along it
# recombinant wildtype and mutated PPO (Amaranthus PPO2: PPX2L_WC SEQ ID NO 2, PPX2L_AC SEQ ID NO 4, dG210 SEQ ID NO 6 & 8) (Amaranthus tuberculatus, UniProt Q0NZW9, D133A/F420M/R128V), sequence (Q0NZW9 1-534 R128V/D133A/F420M): as the sequence (Q0NZW9 1-534 R128M/D133A/F420M) above, with M128V counted along it
SMILES,IC50 [1],IC50 [2],IC50 [3],IC50 [4],IC50 [5],IC50 [6],IC50 [7],IC50 [8]
C#CCN1C(=O)C(F)(F)Oc2cc(F)c(N3C(=O)C4=C(CCCC4)C3=O)cc21,≥ 1e-05 M,≥ 1e-05 M,3.57e-06 M,3.07e-06 M,≥ 1e-05 M,3.11e-06 M,3.7e-06 M,4.32e-06 M
COC(=O)C(OC)Oc1ccccc1Oc1cc(-n2c(=O)cc(C(F)(F)F)n(C)c2=O)c(F)cc1Cl (centres unmarked),2.86e-08 M,7.13e-08 M,1.16e-08 M,1.76e-08 M,1.62e-08 M,1.49e-08 M,1.16e-08 M,1.71e-08 M
COC(Oc1ccccc1Oc1cc(-n2c(=O)cc(C(F)(F)F)n(C)c2=O)c(F)cc1Cl)C(=O)OC1CCCCC1 (centres unmarked),6.82e-07 M,1.07e-07 M,2.98e-08 M,2.97e-07 M,3.22e-08 M,1.49e-08 M,1.01e-07 M,3.78e-08 M
"CCOC(=O)COc1ncccc1Oc1cc(-n2c(=O)cc(C(F)(F)F)n(C)c2=O)c(F)cc1Cl [A.13, ethyl [3-[2-chloro-4-fluoro-5-(1-methyl-6-trifluoromethyl-2,4-dioxo-1,2,3,4-tetrahydropyrimidin-3-yl)phenoxy]-2-pyridyloxy]acetate]",4.64e-07 M,2.01e-07 M,6.95e-08 M,4.18e-08 M,4.83e-08 M,3.58e-08 M,1.24e-07 M,4.38e-08 M
C#CCN1C(=O)C(F)(F)Oc2cc(F)c(-n3c(=O)cc(C(F)(F)F)n(C)c3=O)cc21,4.46e-07 M,2.69e-07 M,1.11e-08 M,1.05e-08 M,4.94e-08 M,4.65e-08 M,2.6e-08 M,9.01e-08 M
C#CCN1C(=O)C(F)(F)Oc2cc(F)c(-n3c(=O)n(C)c(=S)n(C)c3=O)cc21,4.82e-07 M and 2.63e-06 M,4.05e-07 M and 2.45e-07 M,2.53e-08 M and 2.33e-08 M,2.64e-08 M and 2.13e-08 M,7.69e-08 M and 7.07e-08 M and 4.84e-08 M,6.5e-08 M and 4.86e-08 M,1.66e-07 M and 2.66e-07 M,2.14e-07 M and 3.15e-07 M
C=CCOC(=O)C(C)(C)OC(=O)c1cc(-n2c(=O)cc(C(F)(F)F)n(C)c2=O)ccc1Cl [BUTAFENACIL],5.47e-08 M,8.02e-08 M,2.31e-08 M,1.28e-08 M,4.38e-08 M,1.05e-08 M,6.69e-08 M,2.56e-08 M
"CS(=O)(=O)NC(=O)c1cc(Oc2ccc(C(F)(F)F)cc2Cl)ccc1[N+](=O)[O-] [Fomesafen, fomesafen]",2.15e-05 M,≥ 1e-05 M,1.1e-05 M,2.91e-06 M,≥ 1e-05 M,≥ 1e-05 M,2.36e-06 M,2.79e-06 M
"CCOC(=O)C(C)OC(=O)c1cc(Oc2ccc(C(F)(F)F)cc2Cl)ccc1[N+](=O)[O-] (centres unmarked) [Lactofen, lactofen]",4.8e-08 M,1.3e-07 M,6.39e-08 M,6.13e-08 M,1.31e-07 M,9.41e-08 M,1.5e-08 M,1.4e-08 M
CCOc1cc(Oc2ccc(C(F)(F)F)cc2Cl)ccc1[N+](=O)[O-] [OXIFLUORFEN],1.17e-06 M,4.21e-06 M,4.16e-07 M,3.68e-07 M,7.36e-07 M,1.05e-06 M,6.52e-08 M,1.98e-07 M
"C#CCN1C(=O)COc2cc(F)c(N3C(=O)C4=C(CCCC4)C3=O)cc21 [Flumioxazin, flumioxazin]",≥ 1e-05 M,≥ 1e-05 M,≥ 1e-05 M,≥ 1e-05 M,≥ 1e-05 M,≥ 1e-05 M,7.28e-06 M,≥ 1e-05 M
O=C(O)c1cc(Oc2ccc(C(F)(F)F)cc2Cl)ccc1[N+](=O)[O-] [ACIFLUORFEN],≥ 1e-05 M,≥ 1e-05 M,≥ 1e-05 M,≥ 1e-05 M,≥ 1e-05 M,≥ 1e-05 M,6.72e-06 M,1.21e-05 M
CCOC(=O)C(Cl)Cc1cc(-n2nc(C)n(C(F)F)c2=O)c(F)cc1Cl (centres unmarked) [CARFENTRAZONE-ETHYL],2.82e-07 M,1.61e-07 M,2.99e-08 M,1.21e-07 M,7.86e-08 M,2.29e-08 M,3.96e-07 M,2.07e-07 M
